Laboratory results: patent US20050059626A1, “Methods of preventing and treating viral infections using immunomodulatory polynucleotide sequences” (priority 2000, published 2005)
Read-outs that look alike come from different tables or passages of the source.

Tests used:
[1] = system: HSV-2; test: Viral titer after pre-treating HSV-2 virus with oligonucleotide, Vero cells; assay type: cell-based, African Green monkey (Vero cells)
Experimental: (§1) HSV-1 or HSV-2 virus was pre-treated with varying concentrations of ISS or non-ISS oligonucleotides for 10 minutes prior to adding the mixture to plated Vero cells. Oligonucleotides were used at 1 μg/ml or 10 μg/ml. Viral titers were calculated as a percent of control titer generated by cells not treated with the oligonucleotides. The data are expressed as percent of control titer.

[2] = system: HSV-1; test: Viral titer after pre-treating HSV-1 virus with oligonucleotide, Vero cells; assay type: cell-based, African Green monkey (Vero cells)
Experimental: as §1

[3] = system: HSV-1; test: Viral titer from Vero cells pre-treated with oligonucleotide, HSV-1; assay type: cell-based, African Green monkey (Vero cells); settings: for Viral titer, percent of control titer: cells infected with HSV-1
Experimental: Vero cells, a cell line derived from African Green monkey kidney, were pre-treated with varying concentrations of ISS or non-ISS oligonucleotides for varying times prior to the addition of HSV-1 or HSV-2. Oligonucleotides were used at 1 μg/ml or 10 μg/ml and the cells were incubated with the oligonucleotides for 30 seconds, 10 minutes or 24 hours. Viral titers were calculated as a percent of control titer generated by cells not treated with the oligonucleotides. The data are expressed as percent of control titer.

[4] = system: influenza A/Mississippi (H3N2) virus; assay type: in vivo, mice; settings: for Pulmonary virus titer (log10/lung) Mean / Pulmonary virus titer (log10/lung) in mouse no. 1 / Pulmonary virus titer (log10/lung) in mouse no. 2 / Pulmonary virus titer (log10/lung) in mouse no. 3 / Pulmonary virus titer (log10/lung) in mouse no. 4 / Pulmonary virus titer (log10/lung) in mouse no. 5: non-ISS = SEQ ID NO:10
[5] = system: influenza A/Mississippi (H3N2) virus; assay type: in vivo, mice; settings: for Pulmonary virus titer (log10/lung) Mean / Pulmonary virus titer (log10/lung) in mouse no. 1 / Pulmonary virus titer (log10/lung) in mouse no. 2 / Pulmonary virus titer (log10/lung) in mouse no. 3 / Pulmonary virus titer (log10/lung) in mouse no. 4 / Pulmonary virus titer (log10/lung) in mouse no. 5 / Pulmonary virus titer (log10/lung) in mouse no. 6 / Pulmonary virus titer (log10/lung) in mouse no. 7: non-ISS = SEQ ID NO:9
[6] = 50 μg IP Day −1, virus Day 0, lungs Day 4
[7] = 50 μg IP Day −3, virus Day 0, lungs Day 4
[8] = 50 μg IN Day 0 shortly before virus, lungs Day 4
[9] = 50 μg IN Day −3, virus Day 0, lungs Day 4

For “5′-TGACTGTGAACGTTCGAGATGA-3′ [SEQ ID NO: 1]”, the “Viral titer, percent of control titer” value ([1]; HSV-2 virus pre-treated 10 minutes with 1 μg/ml) was 96% of control titer, the “Viral titer, percent of control titer” value ([1]; HSV-2 virus pre-treated 10 minutes with 10 μg/ml) was 102% of control titer and the “Effect on viral titers from infected cells” value ([2]; HSV virus incubated with ISS prior to infecting cells in vitro (HSV-1 and HSV-2, Table 13)) was “no effect on the viral titers”. The “Viral titer, percent of control titer” value ([2]; HSV-1 virus pre-treated 10 minutes with 1 μg/ml) was 101% of control titer, the “Viral titer, percent of control titer” value ([2]; HSV-1 virus pre-treated 10 minutes with 10 μg/ml) was 109% of control titer and the “Effect on viral titers from infected cells” value ([3]; cells incubated with ISS prior to HSV infection in vitro (HSV-1 and HSV-2, Table 12)) was “no effect on the viral titers”. For the same substance, the “Viral titer, percent of control titer” value ([3]; cells pre-treated 1 μg/ml, 30 sec) was 98% of control titer, the “Viral titer, percent of control titer” value ([3]; cells pre-treated 1 μg/ml, 10 min) was 96% of control titer and the “Viral titer, percent of control titer” value ([3]; cells pre-treated 1 μg/ml, 24 hr) was 89% of control titer. The “Viral titer, percent of control titer” value ([3]; cells pre-treated 10 μg/ml, 30 sec) was 100% of control titer, the “Viral titer, percent of control titer” value ([3]; cells pre-treated 10 μg/ml, 10 min) was 102% of control titer and the “Viral titer, percent of control titer” value ([3]; cells pre-treated 10 μg/ml, 24 hr) was 82% of control titer. For the same substance, the “Pulmonary virus titer (log10/lung) Mean” value [4, 6] was 6.8 log10/lung, the “Pulmonary virus titer (log10/lung) in mouse no. 1” value [4, 6] was 6.3 log10/lung and the “Pulmonary virus titer (log10/lung) in mouse no. 2” value [4, 6] was 6.8 log10/lung. For the same substance, the “Pulmonary virus titer (log10/lung) in mouse no. 3” value [4, 6] was 7.3 log10/lung, the “Pulmonary virus titer (log10/lung) in mouse no. 4” value [4, 6] was 6.8 log10/lung and the “Pulmonary virus titer (log10/lung) in mouse no. 5” value [4, 6] was 6.8 log10/lung. The “Pulmonary virus titer (log10/lung) Mean” value [4, 7] was 6.9 log10/lung, the “Pulmonary virus titer (log10/lung) in mouse no. 1” value [4, 7] was 7.3 log10/lung and the “Pulmonary virus titer (log10/lung) in mouse no. 2” value [4, 7] was 5.8 log10/lung. The “Pulmonary virus titer (log10/lung) in mouse no. 3” value [4, 7] was 7.3 log10/lung, the “Pulmonary virus titer (log10/lung) in mouse no. 4” value [4, 7] was 6.8 log10/lung and the “Pulmonary virus titer (log10/lung) in mouse no. 5” value [4, 7] was 7.3 log10/lung. For the same substance, the “Reduction in influenza virus titer compared to PBS” value ([4]; IP, 50 μg/mouse before viral infection) was “fails to cause a satisfactory significant reduction in virus titer”, the “Pulmonary virus titer (log10/lung) Mean” value [5, 8] was 4.6 log10/lung and the “Pulmonary virus titer (log10/lung) in mouse no. 1” value [5, 8] was 4 log10/lung. The “Pulmonary virus titer (log10/lung) in mouse no. 2” value [5, 8] was 5.5 log10/lung, the “Pulmonary virus titer (log10/lung) in mouse no. 3” value [5, 8] was 5 log10/lung and the “Pulmonary virus titer (log10/lung) in mouse no. 4” value [5, 8] was 4.5 log10/lung. The “Pulmonary virus titer (log10/lung) in mouse no. 5” value [5, 8] was 4.5 log10/lung, the “Pulmonary virus titer (log10/lung) in mouse no. 6” value [5, 8] was 4.5 log10/lung and the “Pulmonary virus titer (log10/lung) in mouse no. 7” value [5, 8] was 4.5 log10/lung. For the same substance, the “Pulmonary virus titer (log10/lung) Mean” value [5, 9] was 4.7 log10/lung, the “Pulmonary virus titer (log10/lung) in mouse no. 1” value [5, 9] was 5.5 log10/lung and the “Pulmonary virus titer (log10/lung) in mouse no. 2” value [5, 9] was 4 log10/lung. For the same substance, the “Pulmonary virus titer (log10/lung) in mouse no. 3” value [5, 9] was 6 log10/lung, the “Pulmonary virus titer (log10/lung) in mouse no. 4” value [5, 9] was 5.5 log10/lung and the “Pulmonary virus titer (log10/lung) in mouse no. 5” value [5, 9] was 5 log10/lung. For the same substance, the “Pulmonary virus titer (log10/lung) in mouse no. 6” value [5, 9] was 4 log10/lung, the “Pulmonary virus titer (log10/lung) in mouse no. 7” value [5, 9] was 3 log10/lung and the “Reduction in influenza virus titer compared to PBS” value ([5]; IN, 50 μg/mouse before viral infection) was “fails to cause a satisfactory significant reduction in virus titer”.
